# Laboratory results from patent publication US6635653B2 (priority 2001, dated 2003).
# pKi: −log10 of the molar value. “And” between values parts separate entries of the source, which are not always exact repeats. Equal entries are not always repeated.
# Molecular target: Mu opioid receptor (Homo sapiens, UniProt P35372)
# Assay: Affinity at the μ receptor ([35S]GTPγS binding assay, membranes)
# Conditions: read-out: Mu Receptor Affinity calc Ki
# Description: Affinity at the μ receptor for compounds was obtained according to the following assay:
# Mu opioid receptor membrane solution was prepared by sequentially adding final concentrations of 0.075 μg/μl of the desired membrane protein, 10 μg/ml saponin, 3 μM GDP and 0.20 nM [^35S]GTPγS to binding buffer (100 mM NaCl, 10 mM MgCl2, 20 mM HEPES, pH 7.4) on ice. The prepared membrane solution (190 μl/well) was transferred to 96-shallow well polypropylene plates containing 10 μl of 20×concentrated stock solutions of agonist prepared in DMSO. Plates were incubated for 30 min at room temperature with shaking. Reactions were terminated by rapid filtration onto 96-well Unifilter GF/B filter plates (Packard) using a 96-well tissue harvester (Brandel) and followed by three filtration washes with 200 μl ice-cold binding buffer (10 mM NaH2PO4, 10 mM Na2HPO4, pH 7.4). Filter plates were subsequently dried at 50° C. for 2-3 hours. Fifty μl/well scintillation cocktail (MicroScint20, Packard) was added and plates were counted in a Packard Top-Count for 1 min/well.
# Data were analyzed using the curve fitting functions in GraphPad PRISM™, v.3.0 and the results for several compounds are set forth in table 2 below: […]
# Chain of Mu opioid receptor (P35372 whole entry, species assumed): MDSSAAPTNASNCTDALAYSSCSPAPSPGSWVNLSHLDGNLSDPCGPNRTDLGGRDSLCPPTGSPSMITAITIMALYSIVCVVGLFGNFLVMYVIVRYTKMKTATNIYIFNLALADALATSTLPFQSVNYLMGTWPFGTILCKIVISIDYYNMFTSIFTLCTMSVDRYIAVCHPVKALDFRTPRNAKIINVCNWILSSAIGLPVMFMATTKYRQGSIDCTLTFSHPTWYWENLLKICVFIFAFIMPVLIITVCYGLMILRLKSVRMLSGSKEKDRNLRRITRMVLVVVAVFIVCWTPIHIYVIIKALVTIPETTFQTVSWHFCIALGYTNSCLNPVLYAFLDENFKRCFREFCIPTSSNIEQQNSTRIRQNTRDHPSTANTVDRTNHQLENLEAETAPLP
row,Compound,pKi
1,"O=C1NNC(c2ccccc2)C12CCN(C1CCc3ccccc3C1)CC2 (centres unmarked) [8-(1,2,3,4-tetrahydro-2-naphthyl)-1-phenyl-2,3,8-triazospiro[4.5]decan-4-one]",6.94
2,"O=C1NNC(c2ccccc2)C12CCN(Cc1ccccc1)CC2 (centres unmarked) [8-(benzyl)-1-phenyl-2,3,8-triazospiro[4.5]decan-4-one]",7.25
3,"O=C1NNC(c2ccccc2)C12CCN(CC1CCCCCCC1)CC2 (centres unmarked) [8-(cyclooctylmethyl)-1-phenyl-2,3,8-triazospiro[4.5]decan-4-one]",6.72
4,"O=C1NNC(c2ccccc2)C12CCN(Cc1ccc3ccccc3c1)CC2 (centres unmarked) [8-[(naphth-2-yl-methyl)]-1-phenyl-2,3,8-triazospiro[4.5]decan-4-one]",7.08

# Molecular target: T1, human opioid receptor-like receptor (ORL-1) (Homo sapiens, UniProt P41146)
# T1 construct: host or cells: HEK-293
# T1 sequence (P41146 whole entry): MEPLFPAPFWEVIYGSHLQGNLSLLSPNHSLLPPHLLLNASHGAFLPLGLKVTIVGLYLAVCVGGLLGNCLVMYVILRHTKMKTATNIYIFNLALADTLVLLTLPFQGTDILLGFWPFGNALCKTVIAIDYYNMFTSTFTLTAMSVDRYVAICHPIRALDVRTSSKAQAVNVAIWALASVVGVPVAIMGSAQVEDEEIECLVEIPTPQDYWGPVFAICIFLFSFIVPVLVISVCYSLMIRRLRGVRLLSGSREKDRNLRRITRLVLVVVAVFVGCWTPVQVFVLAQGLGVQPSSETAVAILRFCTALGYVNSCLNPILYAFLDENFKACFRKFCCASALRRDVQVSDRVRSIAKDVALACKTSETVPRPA
# Assay: biochemical
# Format: binding
# Conditions: Nociceptin Affinity calc Ki
row,Compound,pKi
1,"O=C1NN=C(c2ccccc2)C12CCN(CCC(c1ccccc1)c1ccccc1)CC2 [8-(3,3-Bis(phenyl)propyl)-4-phenyl-2,3,8-triazospiro[4.5]dec-3-en-1-one]",7.12
2,"CCCC1CCC(N2CCC3(CC2)C(=O)NN=C3c2ccccc2)CC1 (centres unmarked) [8-(4-propylcyclohexyl)-4-phenyl-2,3,8-triazospiro[4.5]dec-3-en-1-one]",7.53
3,"CC(C)CCC(C)N1CCC2(CC1)C(=O)NN=C2c1ccccc1 (centres unmarked) [8-(5-methylhex-2-yl)-4-phenyl-2,3,8-triazospiro[4.5]dec-3-en-1-one]",7.94
4,"O=C1NN=C(c2ccccc2)C12CCN(C1c3ccccc3CCc3ccccc31)CC2 [8-(10,11-Dihydro-5H-dibenzo[a,d]-cyclohepten-5-yl)-4-phenyl-2,3,8-triazospiro[4.5]dec-3-en-1-one]",6.55
5,"O=C1NN=C(c2ccccc2)C12CCN(Cc1ccccc1)CC2 [8-(benzyl)-4-phenyl-2,3,8-triazospiro[4.5]dec-3-en-1-one]",6.53
6,"O=C1NN=C(c2ccccc2)C12CCN(CC1CCCCCCC1)CC2 [8-(cyclooctylmethyl)-4-phenyl-2,3,8-triazospiro[4.5]dec-3-en-1-one]",8.09 and 7.21
7,"O=C1NN=C(c2ccccc2)C12CCN(C1CCC3CCCCC3C1)CC2 (centres unmarked) [8-(decahydro-2-naphthyl)-4-phenyl-2,3,8-triazospiro[4.5]dec-3-en-1-one]",8.96
8,"O=C1NN=C(c2ccccc2)C12CCN(Cc1ccc(OCc3ccccc3)cc1)CC2 [8-(p-benzyloxybenzyl)-4-phenyl-2,3,8-triazospiro[4.5]dec-3-en-1-one]",6.86
9,"O=C1NN=C(c2ccccc2)C12CCN(Cc1ccc(-c3ccccc3)cc1)CC2 [8-(p-phenylbenzyl)-4-phenyl-2,3,8-triazospiro[4.5]dec-3-en-1-one]",5.14
10,"O=C1NN=C(c2ccccc2)C12CCN(CCCC(c1ccc(F)cc1)c1ccc(F)cc1)CC2 [8-[4,4-Bis(4-fluorophenyl)butyl]-4-phenyl-2,3,8-triazospiro[4.5]dec-3-en-1-one]",5.59
11,"CC(C)C1CCC(N2CCC3(CC2)C(=O)NN=C3c2ccccc2)CC1 (centres unmarked) [8-[4-(2-propyl)-cyclohexyl]-4-phenyl-2,3,8-triazospiro[4.5]dec-3-en-1-one]",8.82
12,"O=C1NN=C(c2ccccc2)C12CCN(Cc1ccc3ccccc3c1)CC2 [8-[(naphth-2-yl-methyl)]-4-phenyl-2,3,8-triazospiro[4.5]dec-3-en-1-one]",6.40

# Same assay, conditions: read-out: Nociceptin Affinity calc Ki
row,Compound,pKi
1,"O=C1NN=C(c2ccccc2)C12CCN(C1CC3CCC1C3)CC2 (centres unmarked) [8-norbornyl-4-phenyl-2,3,8-triazospiro[4.5]dec-3-en-1-one]",6.05
